Test [1] deals with T1, VIM-2 (Pseudomonas aeruginosa, UniProt Q9K2N0).
T1 construct: made in house; host or cells: E. coli BL21 (DE3), plasmid pET24a-VIM-2
Put plainly: VIM-2 enzyme-inhibition assay with nitrocefin as substrate (UV-Vis, 482 nm). The format is biochemical, P. aeruginosa. As for the experimental part:
The VIM-2 was overexpressed and purified as previously described. In brief, E. coli BL21 (DE3) cells were transelected with plasmid pET24a-VIM-2. A 10 mL overnight culture of these cells in lysogeny broth (LB) was used to inoculate of M9 media containing kanamycin (25 μg/mL). The cells were allowed to grow at 37 °C with shaking until the optical density at 600 nm (OD600) reached 0.6–0.8. VIM-2 expression was induced with 1 mM IPTG at 25 °C overnight. Cells were collected by centrifugation and lysed by sonication. The supernatant collected by centrifugation was dialyzed three times at 4 °C and loaded on a Q-Sepharose column. Bound protein was eluted with a 0–500 mM NaCl gradient in 30 mM Tris, pH 7.6. The further purification of crude VIM-2 was run though a G75 column (GE Healthcare, Boston, MA, USA) and eluted with 20 mM Tris, pH 7.6, containing 150 mM NaCl, and 5% β-mercaptoethanol. Enzyme purity was analyzed by SDS-PAGE, and determined the concentration by measuring the absorption at 280 nm (extinction co-efficient: 39,000 M^−1cm^−1) using the Nanodrop 2000 c spectrophotometer (Thermo Scientific, Waltham, MA, USA).
The percent inhibition (inhibition%, enzyme activity without inhibitor minus residual activity with 100 μM inhibitor) and IC50 (the inhibitor concentrations causing 50% decrease of enzyme activity) values were measured using a previously established enzyme-inhibition assay on an Agilent UV8453 UV−Vis spectrophotometer using 60 μM nitrocefin (monitoring at 482 nm) as a substrate. The 2-triazolylthioacetamides 1a–j, 2a–e, and 3a–e were dissolved with DMSO and diluted with ddH2O. The VIM-2 and nitrocefin were prepared with a Tris buffer (30 mM, pH 7.6). The final concentration of DMSO inhibition experiments was below 1%. The IC50 values were determined in triplicate against VIM-2, where the inhibitor concentrations were varied between 0 and 120 µM, and final concentrations VIM-2 was 0.6 nM. The tested VIM-2 and inhibitors were premixed at room temperature (30 mM Tris, pH 7.6), and then the substrate in the same buffer was added to the mixture, the initial rates of nitrocefin hydrolysis were recorded at each inhibitor concentration. The percentage inhibition was calculated by the equation inhibition% = 1 − (Vi/V0) and IC50 values were calculated by plotting the average inhibition% against inhibitor concentration and fitting of the data.
To evaluate 2-triazolylthioactamides, the VIM-2 was expressed and purified as previously described. The steady-state kinetic assays were conducted on an Agilent UV8453 spectrometer using nitrocefin (60 µM) as a substrate and monitoring its hydrolytic product at 482 nm.
IC50 values of 1a–j against VIM-2 were measured in 30 mM Tris, pH 7.6, in which the concentrations of inhibitors were varied between 0 and 120 µM. […] Moreover, clogP values of 1a–j (Table 1), as predicted by the ALOGPS 2.1 program, are in the range 1.88–3.05, which are similar with many marked antibacterial agents.

The test system of test [2] is E. coli DH10B-VIM-2. The experiment in a line: MIC by broth micro-dilution, cefazolin alone or with inhibitors, E. coli producing VIM-2. The test is classed as cell-based. The note with it: for Decrease in MIC of cefazolin: inhibitor 128 μg/mL. How it is done:
The minimum inhibitory concentration (MIC) of antibiotics, both alone and in the presence of enzyme inhibitors, was determined using the broth micro-dilution method. E. coli DH10B containing plasmid pBCSK-VIM-2 grown in MH medium to OD600 = 0.45 were used as inocula, after an 84-fold dilution to 1 × 10^5 CFU/mL in MH medium. Cefazolin was dissolved in MH medium to prepare 1024, 512, 256, 128, 64, 32, 16, and 8 for E. coli producing VIM-2 stock solutions, respectively. Compounds 1a–j, 2a–e, and 3a–e were dissolved in DMSO and diluted with MH media to prepare 64 µg/mL stock solutions. The 50 μL prepared stock solutions with different cefazolin concentrations were diluted with a 50 μL inhibitor stock solution, then 100 μL inoculum was added sequentially. The final concentration of both the inhibitor and cefazolin were a quarter of the stock solution concentrations.
The ability of 2-triazolylthioactamides to restore the antimicrobial activity of cefazolin against the bacteria producing VIM-2 was investigated by determining the MICs of β-lactams in the presence and absence of inhibitors (16 μg/mL). E. coli DH10B containing plasmid pBCSK-VIM-2 was used to study these inhibitors. […] Although the strains treated with a high dose of 2-triazolylthioacetamides (128 μg/mL) were still resistant, they are promising in the future.
A general note: In broth dilution the organism is exposed to a series of concentrations in liquid medium.

The target of test [3] is T1, VIM-2. The experiment in a line: Binding affinity to VIM-2 by isothermal titration calorimetry (ITC). The note with it: for TΔS / ΔH / Ka / ΔG: ITC, 298 K, Tris-HCl; for TΔS / ΔH / ΔG: pH 7.6; for Ka: pH 7.6, single binding site model; for ΔG: ∆G = ∆H − T∆S. On the set-up: species or system P. aeruginosa. As for the experimental part: Binding affinity measurements were performed by ITC on a Malvern MicroCal-ITC200 at 298 K. The syringe stirring rate was 750 rpm and kept constant. A stock of VIM-2 and inhibitor (1b, 1c, and 1h) were prepared in Tris buffer (30 mM, pH 7.6) with 1% DMSO. The concentration of VIM-2 was 100 μM. Before the injections, the solution of enzyme and inhibitor were degassed by centrifugation (32,583× g, 5 min), respectively. Then, the prepared VIM-2 solution was transferred into the sample cell (210 μL), and the inhibitor (1 mM) in the syringe was titrated into the sample cell by 18 injections (0.5 μL for the first injection and 1.5 μL for the other 17 injections) with 120 s intervals per injection. The heat of dilution for the inhibitor was determined in the control experiment and subtracted from the integrated data before curve fitting. The data were fitted and analyzed with single binding sites using Origin 7.0 software, provided with the instrument.
To investigate the binding affinity of 2-triazolylthioactamides to VIM-2, 1b, 1c, and 1h as enzyme inhibitors were selected based on the inhibitory activity. […] After the best fitting by the single binding site model, the affinity constant (Ka), corresponding dissociation constant (Kd), and thermodynamic parameters (∆H, ΔS, and ΔG) were determined and listed in Table 3.
On the technique in general: In ITC the heat of successive injections is recorded.

Test [4] concerns E. coli cells without VIM-2. The experiment in a line: Antibacterial activity (MIC) against E. coli cells without VIM-2. The note with it: Escherichia coli, read-out: MIC of cefazolin. The test is classed as cell-based.

As for `O=C(CSc1nnc(-c2ccccc2C(=O)O)[nH]1)Nc1ccccc1` [Compound 1a], the IC50 (in general, the point on the concentration scale where inhibition reaches its midpoint) in test [1] is 40.8 ± 0.3 µM.
As for `O=C(CSc1nnc(-c2ccccc2C(=O)O)[nH]1)Nc1nc2ccccc2[nH]1` [Compound 1b], in test [1], the IC50 worked out at 58.6 ± 0.1 µM. Moreover, the “Decrease in MIC of cefazolin” value in test [2] was 16 fold. Moreover, in test [3], the affinity, expressed as Kd, was 8.62 µM; the TΔS amounted to 17.8 kJ/mol; the ΔH was -11.1 kJ/mol; the Ka came out at 116000 M⁻¹. The ΔG in test [3] was -29 kJ/mol.
Take `O=C(CSc1nnc(-c2ccccc2C(=O)O)[nH]1)Nc1nc2ccccc2s1` [Compound 1c]: it took 49.1 ± 0.1 µM to reach half-maximal inhibition in test [1] (IC50). Also, in test [2], the “Decrease in MIC of cefazolin” value is reported as 16 fold. Besides, in test [3], binding was characterised by a dissociation constant (Kd) of 7.94 µM, the TΔS amounted to 22.3 kJ/mol, the ΔH was -6.74 kJ/mol and the Ka was 126000 M⁻¹. Besides, the ΔG in test [3] is -29.1 kJ/mol.
In test [1], `O=C(CSc1nnc(-c2ccccc2C(=O)O)[nH]1)Nc1ccc(Cl)cc1` [Compound 1d] gave a concentration for half-maximal inhibition (IC50) of 52.2 ± 0.5 µM.
In test [1], `O=C(CSc1nnc(-c2ccccc2C(=O)O)[nH]1)Nc1ccc([N+](=O)[O-])cc1` [Compound 1e] returned a half-inhibitory concentration (IC50) of 38.2 ± 0.3 µM.
On to `O=C(CSc1nnc(-c2ccccc2C(=O)O)[nH]1)NCc1ccccc1` [Compound 1f], for which the midpoint of inhibition in test [1], the IC50, lay at 45.8 ± 0.2 µM.
In turn, `O=C(CSc1nnc(-c2ccccc2C(=O)O)[nH]1)Nc1ccccc1Cl` [Compound 1g] showed a 50% inhibitory concentration (IC50) in test [1] of 31.4 ± 0.4 µM. For the same molecule, the “Decrease in MIC of cefazolin” value in test [2] amounted to 32 fold.
`O=C(CSc1nnc(-c2ccccc2C(=O)O)[nH]1)Nc1cccc(Cl)c1` [Compound 1h]: in test [1], the concentration for half-maximal inhibition (IC50) came out at 20.6 ± 0.1 µM. The “Decrease in MIC of cefazolin” value in test [2] amounted to 32 fold. Further, in test [3], the Kd (commonly the constant that tells how readily two partners part at equilibrium) was 6.41 µM, the TΔS was found to be 8.28 kJ/mol, the ΔH is -21.3 kJ/mol and the Ka is 156000 M⁻¹. Moreover, in test [3], the ΔG is -29.6 kJ/mol.
`O=C(CSc1nnc(-c2ccccc2C(=O)O)[nH]1)Nc1ccccc1[N+](=O)[O-]` [Compound 1i] returned an IC50 in test [1] of 45.2 ± 0.1 µM.
The molecule `O=C(CSc1nnc(-c2ccccc2C(=O)O)[nH]1)Nc1cccc([N+](=O)[O-])c1` [Compound 1j] came in with an IC50 in test [1] of 57.6 ± 0.4 µM.
`Cc1nnc(SCC2=C(C(=O)O)N3C(=O)[C@@H](NC(=O)Cn4cnnn4)[C@H]3SC2)s1` [cefazolin, reference compound]: the MIC – broadly, the least concentration at which growth counts as inhibited – in test [4] is 1 mg/L; in test [2] (Escherichia coli, DH10BVIM2, read-out: MIC of cefazolin) it was 128 mg/L.

The values above are taken from PMC7022493, “Kinetic, Thermodynamic, and Crystallographic Studies of 2-Triazolylthioacetamides as Verona Integron-Encoded Metallo-β-Lactamase 2 (VIM-2) Inhibitor” (Biomolecules, 2020).
